Measurements taken from PMC7948978, “MpeV is a lyase isomerase that ligates a doubly linked phycourobilin on the β-subunit of phycoerythrin I and II in marine Synechococcus” (The Journal of Biological Chemistry, 2020).

Assays:
CpeS = target: T1, CpeS (Synechococcus sp. RS9916, UniProt Q05Q42); assay: co-expression in E. coli; absorbance, zinc-enhanced fluorescence and LC-MS-MS of purified CpeB; assay type: cell-based; conditions: protein co-substrate CpeB or MpeB, site C82; CpeZ enhances
T1 construct: recombinant, pCpeS plasmid; co-expressed in E. coli with bilin synthesis genes and phycoerythrin subunits; CpeS itself not assayed purified
T1 sequence (Q05Q42 1-178): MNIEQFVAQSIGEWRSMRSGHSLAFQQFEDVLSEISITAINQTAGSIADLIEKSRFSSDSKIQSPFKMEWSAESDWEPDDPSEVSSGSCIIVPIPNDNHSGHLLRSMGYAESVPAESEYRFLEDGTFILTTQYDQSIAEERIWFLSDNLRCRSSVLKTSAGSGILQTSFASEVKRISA

[1] = target: T2, CpeB (beta-subunit of phycoerythrin I) (Synechococcus sp. RS9916, UniProt Q05Q60, C50A/C61A); assay: zinc-enhanced bilin fluorescence of gel bands over anti-CpeB western blot; assay type: binding; conditions: covalent, site C82, attached by CpeS, co-expressed with CpeA, MpeV, CpeZ and bilin synthesis genes
T2 construct: with C-phycoerythrin class I alpha chain (phycoerythrin I alpha subunit)
Source text: zinc-enhanced bilin fluorescence of gel bands over anti-CpeB western blot on CpeB (beta-subunit of phycoerythrin I)

[2] = target: T3, CpeB (beta-subunit of phycoerythrin I) (Synechococcus sp. RS9916, UniProt Q05Q60, C50A); assay: LC-MS-MS of trypsin-digested purified protein after co-expression with lyases in E. coli; assay type: binding
T3 construct: with C-phycoerythrin class I alpha chain (phycoerythrin I alpha subunit)
Source text: LC-MS-MS of trypsin-digested purified protein after co-expression with lyases in E. coli on CpeB (beta-subunit of phycoerythrin I) | no peptide ions from the C50A mutant coexpressions modified with PUB at the C61 position

[3] = target: T4, MpeB (beta-subunit of phycoerythrin II) (Synechococcus sp. RS9916, UniProt Q05Q49); assay: as above; assay type: binding; conditions: covalent
T4 construct: with C-phycoerythrin class II alpha chain (phycoerythrin II alpha subunit)
Source text: LC-MS-MS of trypsin-digested purified protein after co-expression with lyases in E. coli on MpeB (beta-subunit of phycoerythrin II)

[4] = target: T5, CpeB (beta-subunit of phycoerythrin I) (Synechococcus sp. RS9916, UniProt Q05Q60); assay: as above; assay type: binding; conditions: covalent
T5 construct: with C-phycoerythrin class I alpha chain (phycoerythrin I alpha subunit)
Source text: (§1) LC-MS-MS of trypsin-digested purified protein after co-expression with lyases in E. coli on CpeB (beta-subunit of phycoerythrin I)

[5] = target: T6, CpeB (beta-subunit of phycoerythrin I) (Synechococcus sp. RS9916, UniProt Q05Q60, C61A); assay: as above; assay type: binding; conditions: covalent, same co-expression
T6 construct: with C-phycoerythrin class I alpha chain (phycoerythrin I alpha subunit)
Source text: as §1

[6] = doubly linked at C50 and C61, attached by MpeV, same co-expression

Structure (SMILES) | co-expression in E. coli; absorbance, zinc-enhanced fluorescence and LC-MS-MS of (CpeS) | Percentage chromophorylation (% ± SD) ^b [1] | Bilin added ^a ([2]; covalent, site C82, attached by CpeS, co-expressed with CpeA, CpeS, MpeV, CpeZ and bilin synthesis genes) | β-165 / β-82 ([3]; site C82, attached by CpeS, co-expressed with MpeA, MpeV, CpeZ and bilin synthesis genes) | β-82 ^b / α-140 ([4]; site C82, attached by CpeS, co-expressed with CpeA, MpeV, CpeZ and bilin synthesis genes) | Bilin added ^a ([5]; site C82, attached by CpeS) | Bilin added ^a ([2]; covalent attachment at C61 tested, not detected, same co-expression) | β-50, 61 [3, 6] | β-50, 61 ^b / β-159 [4, 6] | Bilin added ^a ([5]; single linkage by A ring at C50, attached by MpeV)
C=CC1=C(C)C(CC2=NC(=Cc3[nH]c(C=C4NC(=O)C(C)C4=CC)c(C)c3CCC(=O)O)C(CCC(=O)O)=C2C)NC1=O (stereo not shown) [PEB, phycoerythrobilin] | The lyase CpeS is able to attach PEB to CpeB | 89.0 ± 12.3 % of WT | 76.3% | 99.7% | 98.2% | 100% | – | – | – | –
C=CC1=C(C)[C@@H](CC2=N/C(=C\c3[nH]c(C[C@H]4NC(=O)C(C)=C4C=C)c(C)c3CCC(=O)O)C(CCC(=O)O)=C2C)NC1=O [PUB, phycourobilin] | – | – | – | – | – | – | 0% | 84.7% | 29.4% | 7.6%
